Test results from patent US8785424B2, “ngCycloartanone derivatives with anticancer activity” (Pierre Fabre Medicament, priority 2009, dated 2014).
Where a name gives a salt, the structure may show the parent alone.

System: proteasome
Assay: Cellular proteasome inhibition test: accumulation of 4Ub-Luc reporter (luciferase activity) in DLD-1 4Ub-Luc cell line
Type: cell-based, human
Details: DLD-1 4Ub-Luc cells; for relative induction factor (IF % luminescence) versus epoxomicin: 8 hours, epoxomicin = 100%
Description: Biological tests were carried out according to protocols described in the following articles: Ausseil F. et al. J. Biomol Screen. 2007, 12, 106-116 and Vandenberghe I. et al. Biochemical Pharmacology 2008, 76, 453-462.
In order to select novel proteasome inhibitor compounds, it is necessary to indirectly measure the activity of this proteasome within cells. To this end, we constructed a stable cell line, DLD-1 4Ub-Luc, arising from a human colon cancer cell line, which produces a chimeric reporter protein called 4Ub-Luc. This protein is a fusion between a 4-ubiquitin (4Ub) label and luciferase (Luc). This label is capable to direct every proteins that carry it toward the proteasome. The 4Ub-Luc protein is thus efficiently degraded by the proteasome, in contrast to the “wild” non-fused Luc protein. When the DLD-1 4Ub-Luc cell line is treated with a proteasome inhibitor, the fusion protein is much less efficiently degraded and accumulates in the cell. This accumulation is detected by an increase in luciferase activity in the treated extract compared to the extract from untreated cells. The control consists of verifying that the inhibitor has no effect on accumulation of the wild Luc protein produced by the stable DLD-1 RF cell line. For both cell lines and for each product an induction factor is determined for the product tested (or the reference) corresponding to the ratio between the luciferase activities measured in cells treated with this product (or the reference) and cells treated with solvent alone.
The product's activity is then defined by its relative induction factor, i.e., the ratio of its induction factor (IF % luminescence) to that of the reference molecule epoxomicin (IF=100%; see data presented in the table below).
Thus, the test established by Pierre-Fabre is a cellular test that has the advantage, compared to a purely enzymatic test, of detecting only products capable of penetrating the cell.
Two cell lines are used for this test: DLD-1 RF and DLD-1 4Ub-Luc. The culture medium used is as follows: • MEM • 5% fetal calf serum • 5 ml of penicillin-streptomycin • 2.5 ml of FUNGIZONE® (Amphotericin B) • 10 ml of […]
Day 1: Inoculate white 96-well culture-treated plates (PerkinElmer White ViewPlate, product no. 6005181) with 100 μl of 1·10^5 c/ml cell suspension per well. Incubate for 24 hours so that the cells adhere. On each plate five columns will be inoculated with DLD-1 4Ub-Luc and five others with DLD-1 RF according to diagram 1 below.
Day 2: Remove the medium by turning the plates upside down on cotton, and then carry out the treatment with the compounds of the invention, with solvent alone or with a reference compound such as epoxomicin. […]
The columns are paired (examples 2 and 8, 3 and 9, 4 and 10 and 5 and 11) and treated with the same compound. Columns 6 and 7 receive the experimental control, namely 0.1% DMSO in culture medium for wells B, C, D, and E of columns 6 and 7, and the positive control (10^−7 M epoxomicin) in wells F and G.
After incubation, turn the plate upside down on cotton to empty the wells, rinse with 50 μl of PBS to remove any trace of the cytotoxin tested and then add 50 μl of 5× passive lysis buffer (Promega, product no. E1941) diluted to ⅕ in water. Shake energetically using a plate shaker for 5 to 10 minutes at room temperature before freezing at −20° C.
Luciferase activity is measured using a Luciferase Assay System 10-Pack kit (Promega, product no. E1501).
On the day luciferase activity is to be measured, defrost the plates and wait until they have returned to room temperature. The optimal temperature for luciferase activity is 20-25° C.
Reconstitute the firefly luciferase substrate by defrosting the buffer and then adding 10 ml of buffer to the bottle containing the freeze-dried substrate. Wait until the solution is at room temperature before beginning the assay. […]

[1] = concentration tested 5 · 10^−6 M
[2] = concentration tested 5 · 10^−7 M

Structure (SMILES) | relative induction factor (IF % luminescence) versus epoxomicin [1] | relative induction factor (IF % luminescence) versus epoxomicin (concentration tested 10^−5 M) | relative induction factor (IF % luminescence) versus epoxomicin (concentration tested 10^−6 M) | relative induction factor (IF % luminescence) versus epoxomicin [2] | induction factor of the reference (IF % luminescence) (reference molecule at 10^−7 M, set to IF=100%) | relative induction factor (IF % luminescence) versus epoxomicin (concentration tested 5 · 10^−6 M, hydrochloride) | relative induction factor (IF % luminescence) versus epoxomicin (concentration tested 10^−5 M, hydrochloride) | relative induction factor (IF % luminescence) versus epoxomicin (concentration tested 10^−6 M, hydrochloride)
C=C(C(=O)[C@H](OC(C)=O)[C@@H](C)[C@H]1[C@@H](OC(C)=O)C[C@@]2(C)[C@@H]3[C@H]4O[C@H]4[C@H]4[C@H](C)C(=O)C=C[C@@]45C[C@@]35CC[C@]12C)[C@@H](C)CO [Compound 12, 6,7-epoxy-neoboutomellerone] | 72% | 15% | 3% | – | – | – | – | –
C=C(C(=O)[C@H](OC(C)=O)[C@@H](C)[C@H]1[C@@H](OC(C)=O)C[C@@]2(C)C3CCC4[C@H](C)C(=O)C=C[C@@]45C[C@@]35CC[C@]12C)[C@@H](C)COC1(C)OC2OC(COC(C)=O)C(OC(C)=O)C(OC(C)O)C2O1 (stereo partly drawn) [Compound 82, Neoboutomellerone 26-(2,3,4,6-tetraacetyl-glucosylate)] | 59% | 48% | 2% | – | – | – | – | –
C=C(C(=O)[C@H](OC(C)=O)[C@@H](C)[C@H]1[C@@H](OC(C)=O)C[C@@]2(C)[C@@H]3CC[C@H]4[C@H](C)C(=O)C=C[C@@]45C[C@@]35CC[C@]12C)[C@@H](C)CO [Compound 2, Neoboutomellerone] | 37% | 4% | 48% | 2% | – | – | – | –
C=C(C(=O)[C@H](OC(=O)CNC(=O)OC(C)(C)C)[C@@H](C)[C@H]1[C@@H](OC(C)=O)C[C@@]2(C)C3CCC4[C@H](C)C(=O)C=C[C@@]45C[C@@]35CC[C@]12C)[C@@H](C)COC(C)=O (stereo partly drawn) [Compound 60, 22-deacetyl-neoboutomellerone 22-(N-Boc-glycinate)-26-acetyl] | 4% | 2% | 71% | 76% | – | – | – | –
C=C(C(=O)C(OC(C)=O)C(C)[C@H]1[C@@H](OC(C)=O)C[C@@]2(C)[C@@H]3CC[C@H]4[C@H](C)C(=O)C=C[C@@]45C[C@@]35CC[C@]12C)C(C)CO (stereo partly drawn) [Compound 13, Diastereoisomer on the Side Chain of Neoboutomellerone] | 71% | 60% | 2% | – | – | – | – | –
C=C(C(=O)[C@H](OC(C)=O)[C@@H](C)[C@H]1[C@@H](OC(C)=O)C[C@@]2(C)[C@@H]3CC[C@H]4[C@H](C)/C(=N/NC(N)=O)C=C[C@@]45C[C@@]35CC[C@]12C)[C@@H](C)CO [Compound 35, 3-semicarbazone-neoboutomellerone] | 99% | 30% | 1% | – | – | – | – | –
CC[C@H](C)[C@H](NC(=O)[C@H]([C@@H](C)CC)N(C)C(C)=O)C(=O)N[C@H](C(=O)N[C@@H](CC(C)C)C(=O)[C@@]1(C)CO1)[C@@H](C)O [epoxomicin, reference compound] | – | – | – | – | 100% | – | – | –
C=C(C(=O)[C@H](O)[C@@H](C)[C@H]1[C@@H](OC(C)=O)C[C@@]2(C)[C@@H]3CC[C@H]4[C@H](C)C(=O)C=C[C@@]45C[C@@]35CC[C@]12C)C(C)C [Compound 7, 22-deacetyl,26-dehydroxy-neoboutomellerone] | 65% | 21% | 2% | – | – | – | – | –
C=C(C(=O)[C@H](OC(C)=O)[C@@H](C)[C@H]1[C@@H](OC(C)=O)C[C@@]2(C)C3CCC4[C@H](C)C(=O)C=C[C@@]45C[C@@]35CC[C@]12C)[C@@H](C)COC(=O)CN(C)C (stereo partly drawn) [Compound 63, neoboutomellerone 26-N-dimethyl glycinate hydrochloride] | – | – | – | 66% | – | 11% | 3% | 50%
CC(=O)O[C@H]1C[C@@]2(C)[C@@H]3CC[C@H]4[C@H](C)C(=O)C=C[C@@]45C[C@@]35CC[C@]2(C)[C@H]1[C@H](C)[C@@H](O)C(=O)C=C(C)C [Compound 10, 22-deacetyl,26-dehydroxy,24,25-dehydro-nor-neoboutomellerone] | 5% | 53% | 1% | – | – | – | – | –
CC(=O)O[C@H]1C[C@@]2(C)[C@@H]3CC[C@H]4[C@H](C)C(=O)C=C[C@@]45C[C@@]35CC[C@]2(C)[C@H]1[C@H](C)[C@@H](OC(C)=O)C12OCC(C)C1Cc1ccc(O)cc1O2 (stereo partly drawn) [Compound 88, Neoboutomellerone Resorcinol Derivative] | 47% | 78% | 1% | – | – | – | – | –
C=C(C(=O)[C@H](OC(C)=O)[C@@H](C)[C@H]1[C@@H](OC(C)=O)C[C@@]2(C)[C@@H]3CC[C@H]4[C@H](C)C(=O)CC[C@@]45C[C@@]35CC[C@]12C)[C@@H](C)CO [Compound 11, 1,2-dihydro-neoboutomellerone] | 45% | 48% | 1% | – | – | – | – | –
C=C(C(=O)[C@H](OC(=O)CCC(=O)O)[C@@H](C)[C@H]1[C@@H](OC(C)=O)C[C@@]2(C)C3CCC4[C@H](C)C(=O)C=C[C@@]45C[C@@]35CC[C@]12C)[C@@H](C)COC(C)=O (stereo partly drawn) [Compound 74, 22-deacetyl-22-succinate-26-acetyl-neoboutomellerone N-methylglucamine salt] | 14% | 2% | 60% | – | – | – | – | –
C=C(C(=O)[C@H](OC(C)=O)[C@@H](C)[C@H]1[C@@H](OC(C)=O)C[C@@]2(C)C3CCC4[C@H](C)C(=O)C=C[C@@]45C[C@@]35CC[C@]12C)[C@@H](C)COC(=O)CN(C)C (stereo partly drawn) [Compound 62, Neoboutomellerone 26-N-dimethyl glycinate] | 49% | 7% | 11% | – | – | – | – | –
C=C(C(=O)[C@H](O)[C@@H](C)[C@H]1[C@@H](OC(C)=O)C[C@@]2(C)C3CCC4[C@H](C)C(=O)C=C[C@@]45C[C@@]35CC[C@]12C)[C@@H](C)COC(C)=O (stereo partly drawn) [Compound 17, 26-acetyl-22-deacetyl-neoboutomellerone] | 29% | 6% | 26% | 2% | – | – | – | –
C=C(C(=O)[C@H](OC(=O)CCl)[C@@H](C)[C@H]1[C@@H](OC(C)=O)C[C@@]2(C)C3CCC4[C@H](C)C(=O)C=C[C@@]45C[C@@]35CC[C@]12C)[C@@H](C)COC(C)=O (stereo partly drawn) [Compound 61, 22-chloroacetyl-26-acetyl-neoboutomellerone] | 21% | 6% | 64% | 23% | – | – | – | –
